Data taken from patent US7485652B2, “Indolyl derivatives as liver-X-receptor (LXR) modulators” (Hoffmann-La Roche Inc., priority 2004, dated 2009).
pIC50: −log10 of the molar value.

What was measured:
human LXR alpha = molecular target: T1, human LXR alpha (Homo sapiens, UniProt Q13133); assay: Radioligand binding assay (scintillation proximity), LXR alpha; details: GST-LXRα-LBD on SPA beads, radioligand displacement; read-out: LXRalpha Binding IC50
T1 construct: human LXR alpha (aa 164 to 447); made in house; host or cells: E. coli BL21(pLysS)
T1 sequence (Q13133 164-447): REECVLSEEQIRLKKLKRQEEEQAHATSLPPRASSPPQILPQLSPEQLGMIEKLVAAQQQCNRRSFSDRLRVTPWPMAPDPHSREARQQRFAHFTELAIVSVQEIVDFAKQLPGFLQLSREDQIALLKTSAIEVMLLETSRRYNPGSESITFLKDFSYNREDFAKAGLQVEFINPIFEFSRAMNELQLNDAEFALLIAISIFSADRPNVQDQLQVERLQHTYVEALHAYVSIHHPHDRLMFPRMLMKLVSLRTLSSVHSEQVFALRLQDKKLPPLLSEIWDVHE
Method: (§1) The following tests were carried out in order to determine the activity of the compounds of the present invention. Background information on the performed assays can be found in: Nichols J S et al. “Development of a scintillation proximity assay for peroxisome proliferator-activated receptor gamma ligand binding domain”, Anal Biochem. 1998, 257: 112-119.
(§2) Mammalian expression vectors were constructed to express full-length human LXR alpha and LXR beta. Bacterial expression vectors were constructed to produce glutathione-s-transferase (GST) fused to the ligand binding domains (LBD) of human LXR alpha (aa 164 to 447) and human LXR beta (aa 155 to 460). To accomplish this, the portions of the sequences encoding the LBDs were amplified from full-length clones by PCR and then subdoned into the plasmid vectors. Final clones were verified by DNA sequence analysis (Willy et al., Genes Dev. 1995, 9:1033-45; Song et al., Proc Natl Acad Sci USA.1994, 91:10809-13). […]
(§3) LXR alpha and LXR beta receptor binding were assayed in buffer consisting of 50 mM HEPES, pH 7.4, 10 mM NaCl, 5 mM MgCl2. […] All binding assays were performed in 96-well plates and the amount of bound ligand was measured on a Packard TopCount using OptiPlates (Packard). Dose response curves were measured within a range of concentration from 10^−10 M to 10^−4 M.

human LXR beta = molecular target: T2, human LXR beta (Homo sapiens, UniProt P55055); assay: Radioligand binding assay (scintillation proximity), LXR beta; details: GST-LXR beta-LBD on SPA beads, radioligand displacement; read-out: LXRbeta Binding IC50
T2 construct: human LXR beta (aa 155 to 460); made in house; host or cells: E. coli BL21(pLysS)
T2 sequence (P55055 155-460): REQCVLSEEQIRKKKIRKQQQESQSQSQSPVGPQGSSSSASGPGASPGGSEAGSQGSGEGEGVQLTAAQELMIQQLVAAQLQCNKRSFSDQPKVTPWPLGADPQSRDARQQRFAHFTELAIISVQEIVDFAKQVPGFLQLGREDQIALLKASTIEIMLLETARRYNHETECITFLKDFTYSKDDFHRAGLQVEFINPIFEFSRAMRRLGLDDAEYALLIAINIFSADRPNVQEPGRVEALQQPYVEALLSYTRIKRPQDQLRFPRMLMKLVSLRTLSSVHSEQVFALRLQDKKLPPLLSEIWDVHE
Method: as §1, §2, §3

Row | pIC50 (human LXR alpha) | pIC50 (human LXR beta) | SMILES
1 | 7.70 | 8.22 | CC1Cc2cc(C(O)(C(F)(F)F)C(F)(F)F)ccc2N1Cc1cccc(CO)c1 (stereo not shown) [Example 50, 1,1,1,3,3,3-hexafluoro-2-[1-(3-hydroxymethyl-benzyl)-2-methyl-2,3-dihydro-1H-indol-5-yl]-propan-2-ol]
2 | 7.52 | 7.30 | Cc1cc2cc(C(O)(C(F)(F)F)C(F)(F)F)ccc2n1Cc1ccccc1 [Example 80, 2-(1-benzyl-2-methyl-1H-indol-5-yl)-1,1,1,3,3,3-hexafluoro-propan-2-ol]
